Results reported in patent US9492554B2, “Methods and compositions related to viral inhibition” (Clemson University Research Foundation (CURF), priority 2009, dated 2016).

Key:
[1] = test system: TAR RNA; assay: UV melting of TAR RNA in presence of ligands (Tm, ΔTm); assay type: binding, HIV-1; conditions: for ΔTm (° C.): TAR RNA with ligand vs control, Table 10; for Tm (° C.): TAR RNA with ligand, control without ligand 69.3
Method: The reactions were done in the presence of 10 mM sodium cacodylate, 0.5 mM EDTA, 0.1 mM MgCl2 pH 7.0. The heating rate was 0.3° C./min.
UV melting studies of TAR were performed in the presence and absence of various ligands (FIG. 13).

[2] = target: HIV-1 TAR RNA; assay: HIV-1 TAR RNA competition FRET binding assay (Tat peptide probe); conditions: 100 nM TAR RNA, 100 nM Tat peptide, 25° C., 60 min
Method: Before used, HIV-1 TAR RNA (5′-GGC AGA UCUGAG CCU GGG AGC UCU CUG CC-3′, Thermo Scientific) in 10 μM batch in sterile water was heated to 95° C. for 4.5 min, and then cooled rapidly in ice bath for 5 min. This snap-cooling causes the RNA to adopt the kinetically favored hairpin rather than thermodynamically favored duplexes.
The relative affinity of each polyamine for HIV-1 TAR RNA was determined using Fluorescence Resonance Energy Transfer (FRET)-based competitive binding assay with a fluorescein-labeled HIV-1 Tat peptide as described in the literature. The fluorescence experiments were performed with a Spectra Max Fluorimeter (Molecular Devices) at 25° C., with excitation and emission wavelengths of 495 and 570 nm, respectively. All samples were prepared in 96 well plates in 1×TK buffer (50 mM Tris, 20 mM KCl, pH=7.4) with 0.1% Trixton-100 (Sigma).
To a solution of 100 nM HIV-1 TAR RNA and 100 nM fluorescein-labeled HIV-1 Tat peptide, appropriate concentrations (0 nM to 100 μM) of the antagonists were added at 25° C.; total volume of the incubation solution was 80 μL. After 60 min, fluorescence changes of the sample solution were determined by the Spectra Max Fluorimeter Detector.

[3] = test system: cells
[4] = test system: HIV; assay: Protection from HIV cytopathic effects; assay type: cell-based; conditions: at 24 microM
[5] = test system: HIVNL4-3 in MT-2 cells; assay: HIV antigen synthesis in treated cells, immunofluorescence assay (IFA); assay type: cell-based; conditions: for percentage of cells positive for HIV antigens, Day 2: MT-2 cells, microM: DPA119 24, DPA52 25, DPA53 9, DPA54 17, DPA55 4, DPA56 8, DPA121 25, virus control 15%; for percentage of cells positive for HIV antigens, Day 4 / percentage of cells positive for HIV antigens, Day 6: same concentrations, virus control 100%
Method: (§1) Anti-HIV activities can be routinely checked by measuring the percentage of cells positive for HIV antigens using immunofluorescence assay (IFA) and for the release of pelletable reverse transcriptase (RT) into the supernatant. For these assays, 500,000 MT-2 cells in 1 ml of media were added to the wells of a 24 well tissue culture plate. Next, 0.5 ml of 4× concentrated compound was added to triplicate wells of the plate. The cells and compounds were incubated for 1 hr at 37 C. Finally, 0.5 ml of HIVNL4-3, produced in H9 cells (a CD4+ lymphoblastoid cell line), 100,000 cpm of RT activity per well, was added to each well. Virus control wells contained no compounds. This inoculum is at a multiplicity of infection less than 1. On days 2, 4, and 6, 0.75 mls of supernatants were removed and placed into individual microfuge tubes for RT assay. Next, cells were resuspended in the media and 0.5 mls of the total remaining volume was removed for IFA. Cells were combined from their triplicate infections, pelleted, and the enriched cells were air-dried onto glass slides. The dried cells were fixed in acetonemethanol (50:50). After fixing, cells were stained with HIV immunoglobulin, washed in PBS, and counter-stained with FITC-conjugated goat and human IgG. Slides were washed in PBS and the percentage of HIV-positive cells was determined by epifluorescence (Robinson et al. J Acquire Immune Defic Syndr 2:33-42, 1989).

[6] = test system: HIVNL4-3 in MT-2 cells; assay: Release of reverse transcriptase into the culture supernatant; assay type: cell-based, HIV; conditions: for Release of reverse transcriptase into the culture supernatant, Day 2: mean of triplicate infections (SD), microM: DPA119 24, DPA52 25, DPA53 9, DPA54 17, DPA55 4, DPA56 8, DPA121 25, virus control 46,029; for Release of reverse transcriptase into the culture supernatant, Day 4 / Release of reverse transcriptase into the culture supernatant, Day 6: mean of triplicate infections; for Release of reverse transcriptase into the culture supernatant, Day 4: virus control 928,112; for Release of reverse transcriptase into the culture supernatant, Day 6: virus control 1,078,741
Description: as §1, with “The disclosed conjugates also reduce the amount of reverse transcriptase (RT) released into the cell culture supernatant upon in vitro cell culture experiments (Table 14 below). […] It is possible that even though the cells are positive for HIV, they are making much fewer unspliced transcripts, and thus the virion release into the media remains suppressed. […] Anti-HIV” for “Anti-HIV”, “On days 2, 4, and 6, 0.75 mls of supernatants were removed and placed into individual microfuge tubes for RT assay.” left out, “[…] The supernatants from each well were precipitated at 4 C overnight in a solution including 30% polyethylene glycol. After precipitation, precipitate was lysed in a solution containing Triton X100, Tris buffer, and DTT. RT activity of each aliquot was determined as incorporation of 3H-dTTP into a poly rA-oligo dT template. After a one hour assay at 37 C, the incorporated dTTP was precipitated onto a ZetaProbe (BioRad) membrane. Slots were excised and placed into liquid scintillation cocktail. After overnight incubation, counts per minute for each sample was determined on a beta counter. Results were calculated as cpm/ml of original culture supernatant (Robinson et al.” for “J Acquire Immune Defic Syndr 2:33-42, 1989).”

[7] = target: HIV-1 RRE RNA; assay: HIV-1 RRE RNA competition binding assay (fluorescence polarization, Rev peptide probe); conditions: 100 nM RRE RNA, 10 nM Rev peptide, 25° C., 1 hour; Table 16
Method: Before used, HIV-1 RRE RNA (5′-GGUCUGGGCGCAGCGCAAGCUGACGGUACAGGCC-3′, Thermo Scientific) in 10 μM batch in sterile water was heated to 95° C. for 3 min, and then cooled to ambient temperature over 1 hour.
The relative affinity of each compound for HIV-1 RRE RNA was determined using fluorescence polarization-based competitive binding assay with a fluorescein-labeled HIV-1 Rev peptide. The anisotropy experiments were performed with a Spectra Max Fluorimeter (Molecular Devices) at 25° C., with excitation and emission wavelengths of 485 and 525 nm, respectively. All samples were prepared in 96 well plates in binding buffer (30 mM Hepes, 100 mM KCl, 40 mM NaCl, 10 mM NH4OAc, 10 mM Guanidinium Hydrochloride, 2 mM MgCl2, 0.5 mM EDTA, pH 7.4) with 0.01% triton-X100 (Sigma). The binding data reported for each conjugate are the averages of 3˜5 individual measurements.
A solution of 100 nM RRE RNA and 10 nM fluorescein-labeled HIV-1 Rev peptide was incubated at 25° C. After 10 min, appropriate concentrations (0 nM to 500 μM) of the antagonists were added; total volume of the incubation solution was […]. After 1 hour, the amount of the dissociated fluorescent probe was determined by the Spectra Max fluorescence plate reader. The experimental dose-response data for a given antagonist were fit to a sigmoidal dose-response nonlinear regression model on GraphPad Prism 4.0 to afford the IC50 values for each conjugates (Table 16).

Structure (SMILES)	ΔTm (° C.) [1] [°C]	Tm (° C.) [1] [°C]	IC50 ([2]; Table 17) [nM]	5% Toxicity microM [3] [µM]	protection from HIV cytopathic effects [4] [%]	percentage of cells positive for HIV antigens, Day 2 [5]	percentage of cells positive for HIV antigens, Day 4 [5] [%]	percentage of cells positive for HIV antigens, Day 6 [5] [%]	Release of reverse transcriptase into the culture supernatant, Day 2 [6]	Release of reverse transcriptase into the culture supernatant, Day 4 [6]	Release of reverse transcriptase into the culture supernatant, Day 6 [6]	IC50 [7] [nM]	IC50 ([2]; Table 18) [nM]
CN1CCN(c2ccc3nc(-c4ccc(OCCn5cc(-c6ccc(-c7cn(C[C@H]8OC(OC9C(O)[C@H](N)CC(N)[C@H]9O[C@H]9OC(CN)[C@@H](O)C(O)C9N)C(O)C8O[C@H]8OC(CN)[C@@H](O)C(O)C8N)nn7)cc6)nn5)cc4)[nH]c3c2)CC1 (some centres unmarked) [DPA118]	4.8	74.1	12100 ± 5400	>184	–	–	–	–	–	–	–	–	–
CN1CCN(c2ccc3nc(-c4ccc(OCCn5cc(COCc6cn(C[C@H]7OC(OC8C(O)[C@H](N)CC(N)[C@H]8O[C@H]8OC(CN)[C@@H](O)C(O)C8N)C(O)C7O[C@H]7OC(CN)[C@@H](O)C(O)C7N)nn6)nn5)cc4)[nH]c3c2)CC1 (some centres unmarked) [DPA119]	4.2	73.5	464 ± 146	94	16	5-7%	90	100	16,576 (3,815) cpm/ml	241,955 cpm/ml	399,421 cpm/ml	–	–
CN1CCN(c2ccc3nc(-c4ccc(OCCn5cc(CCCCc6cn(C[C@H]7OC(OC8C(O)[C@H](N)CC(N)[C@H]8O[C@H]8OC(CN)[C@@H](O)C(O)C8N)C(O)C7O[C@H]7OC(CN)[C@@H](O)C(O)C7N)nn6)nn5)cc4)[nH]c3c2)CC1 (some centres unmarked) [DPA121]	–	–	686 ± 110	>186	–	15%	100	100	26,499 (5,566) cpm/ml	579,856 cpm/ml	880,573 cpm/ml	30500 ± 11100	–
CN1CCN(c2ccc3nc(-c4ccc(OCCn5cc(CCCc6cn(C[C@H]7OC(OC8C(O)[C@H](N)CC(N)[C@H]8O[C@H]8OC(CN)[C@@H](O)C(O)C8N)C(O)C7O[C@H]7OC(CN)[C@@H](O)C(O)C7N)nn6)nn5)cc4)[nH]c3c2)CC1 (some centres unmarked) [DPA120]	3.9	73.2	1700 ± 300	94	–	–	–	–	–	–	–	15300 ± 6900	–
CN1CCN(c2ccc3nc(-c4ccc(OCc5cn(CCCCCCn6cc(CCCCc7cn(C[C@H]8OC(OC9C(O)[C@H](N)CC(N)[C@H]9O[C@H]9OC(CN)[C@@H](O)C(O)C9N)C(O)C8OC8OC(CN)C(O)C(O)C8N)nn7)nn6)nn5)cc4)[nH]c3c2)CC1 (some centres unmarked) [DPA114]	3.8	73.1	11600 ± 2300	11	–	–	–	–	–	–	–	–	–
CN1CCN(c2ccc3nc(-c4ccc(OCc5cn(CCCCCCCCn6cc(CCCCc7cn(C[C@H]8OC(OC9C(O)[C@H](N)CC(N)[C@H]9O[C@H]9OC(CN)[C@@H](O)C(O)C9N)C(O)C8O[C@H]8OC(CN)[C@@H](O)C(O)C8N)nn7)nn6)nn5)cc4)[nH]c3c2)CC1 (some centres unmarked) [DPA116]	3.8	73.1	4300 ± 600	83	–	–	–	–	–	–	–	–	–
CN1CCN(c2ccc3nc(-c4ccc(OCCn5cc(CCCCCCc6cn(C[C@H]7OC(OC8C(O)[C@H](N)CC(N)[C@H]8O[C@H]8OC(CN)[C@@H](O)C(O)C8N)C(O)C7O[C@H]7OC(CN)[C@@H](O)C(O)C7N)nn6)nn5)cc4)[nH]c3c2)CC1 (some centres unmarked) [DPA122]	5.4	74.8	825 ± 145	46	–	–	–	–	–	–	–	5.4 ± 2.4	–
CN1CCN(c2ccc3nc(-c4ccc(OCc5cn(C[C@H]6OC(OC7C(O)[C@H](N)CC(N)[C@H]7O[C@H]7OC(CN)[C@@H](O)C(O)C7N)C(O)C6O[C@H]6OC(CN)[C@@H](O)C(O)C6N)nn5)cc4)[nH]c3c2)CC1 (some centres unmarked) [DPA123]	–	–	–	–	–	–	–	–	–	–	–	768 ± 309	155 ± 49
CN1CCN(c2ccc3nc(-c4ccc(OCc5cn(CCn6cc(CCCCc7cn(C[C@H]8OC(OC9C(O)[C@H](N)CC(N)[C@H]9O[C@H]9OC(CN)[C@@H](O)C(O)C9N)C(O)C8O[C@H]8OC(CN)[C@@H](O)C(O)C8N)nn7)nn6)nn5)cc4)[nH]c3c2)CC1 (some centres unmarked) [DPA113]	3.1	72.4	61300 ± 18100	176	–	–	–	–	–	–	–	–	–
CN1CCN(c2ccc3nc(-c4ccc(OCc5cn(CCCCCCCCCCn6cc(CCCCc7cn(C[C@H]8OC(OC9C(O)[C@H](N)CC(N)[C@H]9O[C@H]9OC(CN)[C@@H](O)C(O)C9N)C(O)C8O[C@H]8OC(CN)[C@@H](O)C(O)C8N)nn7)nn6)nn5)cc4)[nH]c3c2)CC1 (some centres unmarked) [DPA117]	6.3	75.6	1300 ± 200	41	–	–	–	–	–	–	–	15500 ± 6300	–
